The record followed here is patent publication US6248309A, “Gums containing antimicrobial agents” (priority 1999, dated 2001).

In test [1] the test system is Streptococcus mutans (SM). The test is described as follows: MIC of individual antimicrobial agents (Example 4). Format: cell-based, Streptococcus mutans ATCC 25175. Particulars: Table 18. The source says: (§1) The following example illustrates how antimicrobial agents useful in gum compositions of the present invention retard or prevent the growth of dental plaque bacteria present in the oral cavity. In addition, the example illustrates the lowest concentration of various antimicrobial agents that will inhibit visible in vitro growth of a particular bacteria.
(§2) The assay used a microtiter plate to dilute the antimicrobial agent to varying concentrations in order to determine the MIC.
(§3) A bacteria culture was incubated overnight at 37° C. Prior to dilution of the antimicrobial agents as described below, the bacterial culture was spun down at 2000 rpm into a pellet and resuspended in a solution of buffered phosphate. […]
(§4) The 96-well plate was incubated under conditions that varied depending on the particular microorganism. […] Following 48 hours of incubation, the incubated plate was read for microbial growth with a spectraphotometer by optical density (OD). The well containing the lowest dilution achievable with a spectraphotometer reading below 0.05 OD (i.e., no detectable microbial growth) was considered representative for the antimicrobial agent. The MIC for the agent was determined by accounting for the starting stock solution concentration and the resulting dilutions in the 96-well plate. […]

Test [2] has as its system Porphyromonas gingivalis (PG). Description: MIC of agents alone and in two-agent combination (Example 1). The conditions noted are these: concentration of chloramphenicol (agent A). Format: cell-based, Porphyromonas gingivalis ATCC 33277. As to the method:
(§5) The following example illustrates how the MIC of individual antimicrobial agents that are combined were determined and also illustrates how the MIC of the antimicrobial agents in combination were determined.
(§6) A microtiter plate was used to dilute the antimicrobial agents to varying concentrations in order to determine the MIC of those antimicrobial agents alone and the MIC of the agents when combined.
(§7) A bacterial culture was incubated at 37° C. Prior to the dilution of the antimicrobial agents as described below, the bacterial culture was spun down at 2,000 rpm into a pellet and resuspended in a solution of buffered phosphate. The innoculum was normalized with a spectrophotometer to an optical density at 550 nanometers of between 0.180-0.220 (equivalent to 5.0×10^7 colony forming units, CFU per milliliter). The innoculum was set aside until the completion of the antimicrobial agent dilution. […]
(§8) Following 48 hours of incubation, the incubated plate was read for microbial growth with a spectrophotometer by optical density (OD). The well containing the lowest dilution achievable for each agent with a spectrophotometer reading below 0.05 OD (i.e., no detectable microbial growth) was considered representative for the combination. The MIC for each agent in the combination was determined by accounting for the starting stock solution concentration and the resulting dilutions in the 96-well plate. […]

Test [3] has as its system Actinomyces viscosus (AV). Described as above. In kind it is cell-based, Actinomyces viscosus ATCC 19246. Particulars: concentration of chloramphenicol (agent A). As to the method:
as §5, §6, §7, §8

Test [4] relates to Fusobacterium nucleatum (FN). Described as above. The conditions noted are these: concentration of chloramphenicol (agent A). In kind it is cell-based, Fusobacterium nucleatum ATCC 10933. How it is done: as §5, §6, §7, §8
The subject of test [5] is Fusobacterium nucleatum (FN). Description: MIC of individual antimicrobial agents (Example 4). Format: cell-based, Fusobacterium nucleatum ATCC 10933. Particulars: Table 18.
Excerpt: as §1, §2, §3, §4

The test system of test [6] is Streptococcus mutans (SM). The test is described as follows: MIC of agents alone and in two-agent combination (Example 1). In kind it is cell-based, Streptococcus mutans ATCC 25175. The conditions noted are these: concentration of chloramphenicol (agent A). As to the method:
as §5, §6, §7, §8

Test [7] relates to Streptococcus sanguis (SS). The test is described as above. In kind it is cell-based, Streptococcus sanguis ATCC 49295. The conditions noted are these: concentration of chloramphenicol (agent A). How it is done:
as §5, §6, §7, §8

Test [8] relates to Porphyromonas gingivalis (PG). The test is described as follows: MIC of individual antimicrobial agents (Example 4). In kind it is cell-based, Porphyromonas gingivalis ATCC 33277. The conditions noted are these: Table 18.
Excerpt: as §1, §2, §3, §4

The subject of test [9] is Streptococcus sanguis (SS). Description: MIC of individual antimicrobial agents (Example 4). Format: cell-based, Streptococcus sanguis ATCC 49295. Particulars: Table 18.
Excerpt: as §1, §2, §3, §4

Test [10] deals with Actinomyces viscosus (AV). Description: MIC of individual antimicrobial agents (Example 4). In kind it is cell-based, Actinomyces viscosus ATCC 19246. Particulars: Table 18.
Excerpt: as §1, §2, §3, §4

Consider `O=C(NC(CO)C(O)c1ccc([N+](=O)[O-])cc1)C(Cl)Cl` (stereo not shown) [CR1, 2,2-dichloro-N-[2-hydroxyl-1-(hydroxymethyl)-2-(4-nitrophenyl)ethyl]acetamide], for which the MIC in [1] is 3.1 µg/mL; in test [5] it was 3.1 µg/mL; in [8] it was 6.3 µg/mL; in [9], 3.1 µg/mL; in [10], 3.1 µg/mL. The “MIC of Chloramphenicol alone and when combined with Agent B” value in test [2] came out at 6.9 µg/mL; in test [3], 5.4 µg/mL; in [4] it was 1.8 µg/mL; in [6] it was 5.2 µg/mL; in test [7], 3.2 µg/mL.

As usually defined, the MIC is the smallest concentration in the dilution series that meets the test's criterion for growth inhibition.
